# From patent publication US11249094B2, “Astrocyte traumatome and neurotrauma biomarkers” (THE REGENTS OF THE UNIVERSITY OF CALIFORNIA, priority 2015, dated 2022)
# System: Trauma-released GFAP upper and lower BDPs
# Experiment: GFAP breakdown products in conditioned medium of severely stretched astrocyte cultures with protease inhibitors (immunoblot)
# Type: cell-based, human
# Conditions: 48 hour post-injury, DAKO anti-GFAP polyclonal antibody immunoblot
# Protocol: Human astrocytes were isolated from 16-18 week donated fetal neocortical brain specimen, purified and then differentiated on deformable membranes (Wanner, 2012). Cell membrane wounding/compromise, mechanoporation (Barbee, 2005), was determined using Propidium iodide (PI) uptake in living cultures accompanied by nuclear shape assessment (middle picture, stained nuclei, Hoechst stained after fixation, with little pink dots, nucleoli that are PI-stained). Cell death was determined by PI uptake accompanied by condensed nuclei (pyknotic nuclei with compacted chromatin and bright Hoechst and PI stains). Significant percent of cell integrity compromise is shown 30 min post-injury (left graph) while significant cell death was present two days post-injury (bars on the right).
# In order to capture the full range of signal intensity, signals from multiple exposures of immunoblots were densitometrically measured (optical densities) and scaled to match a single exposure.
# Shown in FIG. 25 are two film exposures of GFAP, upper and lower breakdown products 48 hour post-injury in conditioned medium samples using the DAKO anti-GFAP polyclonal antibody. Severely stretched and unstretched cultures received either no drug, calpain inhibitor PD150606 (100 μM, “Cali”) or pan-caspase inhibitor Z-VAD FMK (8.8 μM, “Casi”). […]
Compound,Trauma-released GFAP upper and lower BDPs in conditioned medium (100 μM),Trauma-released GFAP upper and lower BDPs in conditioned medium (8.8 μM)
O=C(O)/C(S)=C/c1ccc(I)cc1 [PD150606],reduced,
Z-VAD FMK,,reduced
